# Data published in PubChem BioAssay (NCI).
#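 Abbreviation: GI50, concentration required for 50% inhibition of growth. TGI marks complete inhibition of growth.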
# Assays:
# Assay in all cases: NCI-60 cell line screen, 384-well format
# 786-0 renal = test system: 786-0 renal
# A498 renal = test system: A498 renal
# A549 NSCLC = test system: A549 NSCLC
# ACHN renal = test system: ACHN renal
# BT-549 breast = test system: BT-549 breast
# CAKI-1 renal = test system: CAKI-1 renal
# COLO 205 colon = test system: COLO 205 colon
# DU-145 prostate = test system: DU-145 prostate
# HCC-2998 colon = test system: HCC-2998 colon
# HCT-116 colon = test system: HCT-116 colon
# HCT-15 colon = test system: HCT-15 colon
# HL-60(TB) leukemia = test system: HL-60(TB) leukemia
# HOP-62 NSCLC = test system: HOP-62 NSCLC
# HOP-92 NSCLC = test system: HOP-92 NSCLC
# HT29 colon = test system: HT29 colon
# IGROV1 ovarian = test system: IGROV1 ovarian
# KM12 colon = test system: KM12 colon
# LOX IMVI melanoma = test system: LOX IMVI melanoma
# M14 melanoma = test system: M14 melanoma
# MALME-3M melanoma = test system: MALME-3M melanoma
# MCF7 breast = test system: MCF7 breast
# MDA-MB-231 breast = test system: MDA-MB-231 breast
# MDA-MB-435 melanoma = test system: MDA-MB-435 melanoma
# MDA-MB-468 breast = test system: MDA-MB-468 breast
# NCI-H226 lung = test system: NCI-H226 lung
# NCI-H23 lung = test system: NCI-H23 lung
# NCI-H322M lung = test system: NCI-H322M lung
# NCI-H460 NSCLC = test system: NCI-H460 NSCLC
# NCI-H522 lung = test system: NCI-H522 lung
# NCI/ADR-RES ovarian = test system: NCI/ADR-RES ovarian
# OVCAR-3 ovarian = test system: OVCAR-3 ovarian
# OVCAR-4 ovarian = test system: OVCAR-4 ovarian
# OVCAR-5 ovarian = test system: OVCAR-5 ovarian
# OVCAR-8 ovarian = test system: OVCAR-8 ovarian
# PC-3 prostate = test system: PC-3 prostate
# RPMI-8226 leukemia = test system: RPMI-8226 leukemia
# RXF 393 renal = test system: RXF 393 renal
# SF-268 CNS = test system: SF-268 CNS
# SF-295 CNS = test system: SF-295 CNS
# SF-539 CNS = test system: SF-539 CNS
# SK-MEL-2 melanoma = test system: SK-MEL-2 melanoma
# SK-MEL-28 melanoma = test system: SK-MEL-28 melanoma
# SK-MEL-5 melanoma = test system: SK-MEL-5 melanoma
# SK-OV-3 ovarian = test system: SK-OV-3 ovarian
# SN12C renal = test system: SN12C renal
# SNB-19 CNS = test system: SNB-19 CNS
# SR leukemia = test system: SR leukemia
# T-47D breast = test system: T-47D breast
# TK-10 renal = test system: TK-10 renal
# U251 glioblastoma = test system: U251 glioblastoma
# UACC-257 melanoma = test system: UACC-257 melanoma
# UACC-62 melanoma = test system: UACC-62 melanoma
# UO-31 renal = test system: UO-31 renal
structure (smiles),measurement,setting,value
Cc1cccc2c1NC(=O)[C@@H](NC(=O)[C@H](CCC(F)(F)F)[C@H](CCC(F)(F)F)C(N)=O)N=C2c1cccc(F)c1,GI50,786-0 renal,22.2 µM
same,TGI,786-0 renal,> 100 µM
same,GI50,A498 renal,7.76 µM
same,TGI,A498 renal,51.6 µM
same,GI50,A549 NSCLC,31.6 µM
same,TGI,A549 NSCLC,> 100 µM
same,GI50,ACHN renal,17.9 µM
same,TGI,ACHN renal,64.5 µM
same,GI50,BT-549 breast,14.7 µM
same,TGI,BT-549 breast,48.3 µM
same,GI50,CAKI-1 renal,13.3 µM
same,TGI,CAKI-1 renal,26.8 µM
same,GI50,COLO 205 colon,37.5 µM
same,TGI,COLO 205 colon,> 100 µM
same,GI50,DU-145 prostate,24.6 µM
same,TGI,DU-145 prostate,> 100 µM
same,GI50,HCC-2998 colon,25.9 µM
same,TGI,HCC-2998 colon,> 100 µM
same,GI50,HCT-116 colon,20.1 µM
same,TGI,HCT-116 colon,> 100 µM
same,GI50,HCT-15 colon,> 100 µM
same,TGI,HCT-15 colon,> 100 µM
same,GI50,HL-60(TB) leukemia,1.61 µM
same,TGI,HL-60(TB) leukemia,3.05 µM
same,GI50,HOP-62 NSCLC,20.4 µM
same,TGI,HOP-62 NSCLC,49.6 µM
same,GI50,HOP-92 NSCLC,16.2 µM
same,TGI,HOP-92 NSCLC,49.6 µM
same,GI50,HT29 colon,> 100 µM
same,TGI,HT29 colon,> 100 µM
same,GI50,IGROV1 ovarian,34.1 µM
same,TGI,IGROV1 ovarian,> 100 µM
same,GI50,KM12 colon,> 100 µM
same,TGI,KM12 colon,> 100 µM
same,GI50,LOX IMVI melanoma,> 100 µM
same,TGI,LOX IMVI melanoma,> 100 µM
same,GI50,M14 melanoma,19.7 µM
same,TGI,M14 melanoma,> 100 µM
same,GI50,MALME-3M melanoma,19.2 µM
same,TGI,MALME-3M melanoma,69.7 µM
same,GI50,MCF7 breast,12 µM
same,TGI,MCF7 breast,> 100 µM
same,GI50,MDA-MB-231 breast,15.7 µM
same,TGI,MDA-MB-231 breast,92.6 µM
same,GI50,MDA-MB-435 melanoma,> 100 µM
same,TGI,MDA-MB-435 melanoma,> 100 µM
same,GI50,MDA-MB-468 breast,13.9 µM
same,TGI,MDA-MB-468 breast,92 µM
same,GI50,NCI-H226 lung,17.7 µM
same,TGI,NCI-H226 lung,75.1 µM
same,GI50,NCI-H23 lung,26.8 µM
same,TGI,NCI-H23 lung,82 µM
same,GI50,NCI-H322M lung,46.8 µM
same,TGI,NCI-H322M lung,> 100 µM
same,GI50,NCI-H460 NSCLC,4.08 µM
same,TGI,NCI-H460 NSCLC,> 100 µM
same,GI50,NCI-H522 lung,8.01 µM
same,TGI,NCI-H522 lung,26.1 µM
same,GI50,NCI/ADR-RES ovarian,56.3 µM
same,TGI,NCI/ADR-RES ovarian,> 100 µM
same,GI50,OVCAR-3 ovarian,20 µM
same,TGI,OVCAR-3 ovarian,> 100 µM
same,GI50,OVCAR-4 ovarian,18 µM
same,TGI,OVCAR-4 ovarian,40.8 µM
same,GI50,OVCAR-5 ovarian,37.7 µM
same,TGI,OVCAR-5 ovarian,> 100 µM
same,GI50,OVCAR-8 ovarian,21.5 µM
same,TGI,OVCAR-8 ovarian,62.5 µM
same,GI50,PC-3 prostate,> 100 µM
same,TGI,PC-3 prostate,> 100 µM
same,GI50,RPMI-8226 leukemia,5.27 µM
same,TGI,RPMI-8226 leukemia,> 100 µM
same,GI50,RXF 393 renal,5.72 µM
same,TGI,RXF 393 renal,22.9 µM
same,GI50,SF-268 CNS,17 µM
same,TGI,SF-268 CNS,41.3 µM
same,GI50,SF-295 CNS,24.3 µM
same,TGI,SF-295 CNS,60 µM
same,GI50,SF-539 CNS,16.3 µM
same,TGI,SF-539 CNS,34.1 µM
same,GI50,SK-MEL-2 melanoma,16.9 µM
same,TGI,SK-MEL-2 melanoma,58.5 µM
same,GI50,SK-MEL-28 melanoma,22.5 µM
same,TGI,SK-MEL-28 melanoma,68 µM
same,GI50,SK-MEL-5 melanoma,25.3 µM
same,TGI,SK-MEL-5 melanoma,> 100 µM
same,GI50,SK-OV-3 ovarian,19.3 µM
same,TGI,SK-OV-3 ovarian,46.8 µM
same,GI50,SN12C renal,70.1 µM
same,TGI,SN12C renal,> 100 µM
same,GI50,SNB-19 CNS,37.7 µM
same,TGI,SNB-19 CNS,> 100 µM
same,GI50,SR leukemia,1.25 µM
same,TGI,SR leukemia,2.54 µM
same,GI50,T-47D breast,25.2 µM
same,TGI,T-47D breast,> 100 µM
same,GI50,TK-10 renal,38.4 µM
same,TGI,TK-10 renal,> 100 µM
same,GI50,U251 glioblastoma,13.7 µM
same,TGI,U251 glioblastoma,72.9 µM
same,GI50,UACC-257 melanoma,16.3 µM
same,TGI,UACC-257 melanoma,55 µM
same,GI50,UACC-62 melanoma,14.9 µM
same,TGI,UACC-62 melanoma,> 100 µM
same,GI50,UO-31 renal,25.6 µM
same,TGI,UO-31 renal,69.5 µM
